Holding throughout (type): in vivo
The subject of series [1] is ischemia-reperfusion model of AKI in mice (IR-AKI). Nature of the series: IR-AKI mice, pyridoxamine pre-treatment, renal fibrosis and injury markers 28 days after injury. The note with it: day 28 after injury. As to the method: FIG. 1. Dose dependent effects of pre-treatment with pyridoxamine (PYR) at 500 and 1000 mg/kg/day on renal fibrosis 28 days after I/R-AKI. (A) Experimental model. Mice underwent unilateral renal pedicle clamping (U-IR) followed by contralateral nephrectomy 8 days after the initial surgery. All mice were pre-treated for 3 days with either vehicle control, or PYR 500 and 1000 mg/kg/day in drinking water supplemented with 200 mg PYR twice a day (or vehicle) by oral gavage for 3 days after each surgical procedure.
(§1) Treatment was continued for 28 days at which point mice were sacrificed and kidney harvested for analysis. (B-D) Expression of renal fibrosis markers Col1α1, α-SMA and Col3α1 mRNA relative to Gapdh mRNA control. (E) Quantification of Sirius red stained (% total area). (F) Representative images for Sirius red stained tissues (outer medulla; scale bars, 50 μm). Results expressed as mean +/−SEM, n=9-10 mice per group. Results only indicated if ANOVA p<0.05: *p<0.05, **p<0.01, ***p<0.001, #p<0.0001. Comparison with uninjured controls (no brackets), or vehicle treated mice (brackets).
FIG. 2. Dose dependent effects of pre-treatment with PYR at 500 and 1000 mg/kg/day on markers of renal injury 28 days after UR-AM. Effect of PYR on Kim1 (A) and NGAL (B) mRNA on day 28 after injury. Results expressed as mean +/−SEM, n=9-10 mice per group. Results only indicated if ANOVA p<0.05: *p<0.05, **p<0.01, ***p<0.001, #p<0.0001. Comparison with uninjured controls (no brackets), or vehicle treated mice (brackets).
(§2) Two doses of pyridoxamine were administered orally, 500 mg/kg/day and 1000 mg/kg/day to an experimental model of AM, the surgical, ischemia-reperfusion model of AKI in mice (IR-AKI) [Cianciolo Cosentino et al, 2013; Skrypnyk et al, 2013], a model of renal ischemia that has been used extensively to model ischemic injury associated with cardiac surgery acquired (CSA-AKI) [Thiele et al, 2015]. For the bulk of the studies pyridoxamine was administered for 3 days prior to the induction of AKI and was continued until completion of the studies. In some experiments, pyridoxamine was administered 24 hours after the induction of AM.
The injury models and treatments were administered as illustrated in FIG. 1A. Mice underwent unilateral renal pedicle clamping (LT-IR) followed by contralateral nephrectomy 8 days after the initial surgery. All mice were pre-treated for 3 days with either vehicle control, or PYR 500 and 1000 mg/kg/day in drinking water supplemented with 200 mg PYR twice a day (or vehicle) by oral gavage for 3 days after each surgical procedure. Treatment was continued for 28 days at which point mice were sacrificed and kidneys harvested for analysis.

Series [2] can be described thus: Plasma pyridoxamine levels after I/R-AKI. To be noted: mice with IR-AKI; for average pyridoxamine plasma levels: 1000 mg/kg/day. The protocol:
FIG. 6. Plasma PYR levels after I/R-AKI. (A) Mice underwent U-IR and were pre-treated for 3 days with vehicle control, PYR 500 mg/kg/day or PYR 1000 mg/kg/day in drinking water supplemented with 200 mg PYR twice a day (or vehicle) by oral gavage for 3 days after the surgical procedure. Evaluation of PYR plasma levels on Day 3 after injury. (B) Mice underwent U-IR followed by contralateral nephrectomy 8 days after the initial surgery. All mice were pre-treated with vehicle control, PYR 500 mg/kg/day or 1000 mg/kg/day in drinking water supplemented with 200 mg PYR twice a day (or vehicle) by oral gavage for 3 days after each surgical procedure. Treatment was continued for 28 days at which point mice underwent venesection for analysis of plasma PYR levels. Evaluation of PYR plasma levels on Day 28 after injury. Results expressed as mean +/−SEM, n=9-10 mice per group. Results only indicated if ANOVA p<0.05: *p<0.05, **p<0.01, ***p<0.001, #p<0.0001. Comparison with uninjured controls (no brackets), or vehicle or PYR 500 mg/kg/day treated mice (brackets).

Series [3] deals with ischemia-reperfusion model of AKI in mice (IR-AKI). Nature of the series: IR-AKI mice, pyridoxamine pre-treatment, renal injury and oxidative stress 3 days after injury. The note with it: pre-treatment 1000 mg/kg/day, day 3 after injury, vs vehicle. The protocol: FIG. 5. Dose dependent effect of pre-treatment with PYR at 500 and 1000 mg/kg/day on renal injury 3 days after I/R-AKI. (A) Experimental model, Mice underwent U-IR and were pre-treated for 3 days with either vehicle control, PYR 500 mg/kg/day or PYR 1000 mg/kg/day in drinking water supplemented with 200 mg PYR twice a day (or vehicle) by oral gavage for 3 days after the surgical procedure. Mice were sacrificed and kidney harvested for analysis 3 days after the initial injury. (B, C) Renal Kim1 and NGAL mRNA expression 3 days after injury expressed as the ratio to Gapdh mRNA control. (D) Tubular injury score 3 days after injury in the OM (0-4, arbitrary units). (E) Representative images for PAS stained tissues (outer medulla; scale bars, 50 μm) F) Expression renal isofuran/isoprostane ratios after
PYR treatment with 500 and 1000 mg/kg/day 3 days after LI-IR. Results expressed as mean +/−SEM, n=9-10 mice per group. Results only indicated if ANOVA p<0.05: *p<0.05, **p<0.01, ***p<0.001, #p<0.0001. Comparison with uninjured (no brackets), or vehicle or PYR 500 mg/kalday treated mice (brackets).
as §2
To determine whether there was also a dose-dependent effect of pyridoxamine at 500 and 1000 mg/kg/day on early renal injury after IR-AKI, mice were sacrificed on day 3 after injury (FIG. 5A) to evaluate renal injury and renal oxidative stress levels.

Series [4] shares this test system. The experiment in a line: IR-AKI mice, pyridoxamine treatment started 24 hours after injury, renal fibrosis and injury markers at 28 days. The note with it: 1000 mg/kg/day started 24 hours after injury, day 28. As to the method: as §1, with “FIG. 3. […] (A) Experimental model. Mice underwent U-IR followed by contralateral nephrectomy 8 days after the initial surgery. Mice were treated with PYR 1000 mg/kg/day starting 24 hours after the initial injury supplemented with 200 mg PYR twice a day (or vehicle) by oral gavage for 3 days after each surgical procedure. Treatment” for “Treatment”, “n=8-10/group.” for “n=9-10 mice per group.”, “Results” for “Results only”, “uninjured” for “uninjured controls”, “or delayed PYR treatment” for “treated mice”
FIG. 4. No effects of treatment with PYR at 1000 mg/kg/day started 24 hours after injury on markers of renal injury 28 days after I/R-AKI. (A, B) Expression of renal injury markers Kim1 and NGAL mRNA relative to Gapdh mRNA control on day 28 after injury. Results expressed as mean +/−SEM, n=8-10/group. Results indicated if ANOVA p<0.05: *p<0.05, **p<0.01, ***p<0.001, #p<0.0001. Comparison with uninjured (no brackets), or vehicle or delayed PYR treatment (brackets).
as §2
To determine whether delayed treatment with the high dose of pyridoxamine was effective in reducing post-injury fibrosis after IR-AKI, mice were treated with PYR 1000 mg/kg/day starting 24 hours after the initial injury supplemented with 200 mg PYR twice a day (or vehicle) by oral gavage for 3 days after each surgical procedure. Treatment was continued for 28 days at which point mice were sacrificed and kidney harvested for analysis (FIG. 3A).

The mark [5] stands for this setting: pre-treatment 500 and 1000 mg/kg/day oral, kidney, vs vehicle.

Molecules are shown by their SMILES.

As for `Cc1ncc(CO)c(CN)c1O` [pyridoxamine], in series [1] (setting [5]), the “expression of pro-fibrotic gene Col1α1 mRNA” value is “lowered expression”, the “expression of pro-fibrotic gene Col3α1 mRNA” value is given as “lowered expression”, the “expression of pro-fibrotic gene αSMA mRNA” value is reported as “lowered expression” and the “level of fibrosis (Sirius red staining)” value is “decreased level of fibrosis”. Also, the “expression of renal injury marker Kim1” value in series [1] (pre-treatment 500 and 1000 mg/kg/day) is on record as “lowered expression”. Besides, the “average pyridoxamine plasma levels” value in series [2] (day 3) is roughly 6 µg/mL. In addition, in series [2] (day 28), the “average pyridoxamine plasma levels” value is roughly 6 µg/mL. Also, the “plasma pyridoxamine levels, dose dependence” value in series [2] (500 vs 1000 mg/kg/day, days 3 and 28) was “dose-dependent increase”. Moreover, the “histological tubular injury scores” value in series [3] (outer medulla) is recorded as “reduction”. In series [3], the “renal NGAL mRNA expression” value is given as “significant, dose-dependent decrease” and the “renal levels of oxidative stress marker isofuran-to-isoprostane ratio” value is “reduction”. In addition, in series [4], the “expression of injury marker Kim1” value was “did not lower expression”, the “expression of injury marker NGAL” value is listed as “did not lower expression”, the “expression of pro-fibrotic gene Col3α1 mRNA” value is reported as “lowered expression” and the “expression of pro-fibrotic gene αSMA mRNA” value is “lowered expression”. Besides, the “post-injury fibrosis (Sirius red staining)” value in series [4] was “decreased post-injury fibrosis”. Besides, in series [4] (listed as PYR), the “expression of injury marker Kim1” value is on record as “No effects”, the “expression of injury marker NGAL” value is “No effects” and the “post-injury fibrosis (Sirius red staining)” value is on record as “Beneficial effects”.

(Values after patent US20170042869A1, “Methods for limiting acute kidney injury” (VANDERBILT UNIVERSITY, priority 2014, published 2017).)
